The values that follow come from US20240415837A1, “PHARMACOLOGIC MODULATION OF 5-FLUOROURACIL BY FOLINIC ACID AND VITAMIN B6 FOR THE TREATMENT OF PATIENTS WITH CARCINOMA” (priority 2021, published 2024).

As a reminder, the Kd is the free concentration of one partner at which half of the binding sites on the other are occupied at equilibrium, for simple one-to-one binding. Usually Km stands for the substrate concentration at which the rate is half of its maximum.

In data set [1] the target is serine hydroxymethyl transferase (SHMT) apoenzyme. The conditions noted are these: cited from earlier work.
A short description of data set [2]: Erythrocyte pharmacokinetics of vitamin B6 after intraperitoneal high-dose pyridoxine or pyridoxamine in mice. The conditions noted are these: erythrocytes, 450 mg/kg intraperitoneal.
Experimental: Erythrocyte pyridoxamine 5′-phosphate (PMP) and pyridoxal 5′-phosphate (PLP) levels were measured in mice after intraperitoneal administration of high doses of pyridoxine (PN) or pyridoxamine (PM).
The target in data set [3] is T1, pyridoxine (pyridoxamine) 5′-phosphate oxidase (PNPOx) (Homo sapiens, UniProt Q9NVS9).
T1 sequence (Q9NVS9 1-261): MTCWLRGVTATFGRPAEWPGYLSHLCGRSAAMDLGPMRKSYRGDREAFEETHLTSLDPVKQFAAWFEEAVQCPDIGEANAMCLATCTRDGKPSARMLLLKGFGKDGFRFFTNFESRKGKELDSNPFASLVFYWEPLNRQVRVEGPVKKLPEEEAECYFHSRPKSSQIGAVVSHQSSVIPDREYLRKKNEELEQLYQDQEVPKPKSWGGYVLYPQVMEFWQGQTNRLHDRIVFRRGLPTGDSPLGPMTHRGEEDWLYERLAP
The conditions noted are these: read-out: Km of PNPOx; cited from earlier work.

For data set [4] the following is noted: cited from earlier work.
The nature of data set [5]: Pilot study in patients with advanced breast carcinoma: assessment of toxicity. The conditions noted are these: human, in vivo. From the text: Doxorubicin comprised in FAC and AVCF regimens was suspended in case of ≥10% decrease in left ventricular ejection fraction from baseline value. […] Vinorelbine-containing chemotherapy (i.e., VCbF) was indicated instead of TCbF for patients who had severe hematopoietic impairment or prior taxane-induced toxicity and was used in substitution for TCbF in cases of paclitaxel-induced SPN occurring in patients throughout the study.
Patients with paclitaxel induced neuropathy, whose chemotherapy was either interrupted or pursued with VCbF had further progressive decrease of neurologic symptoms, and then disappearance occurring in most patients during follow-up. […] Except for interruption of paclitaxel as described above, no dose reductions of any cytostatic agent or increasing intervals between courses due to unusual or unexpectedly excessive hematologic and/or visceral toxicity were required. The single case of acute myelogenous leukemia carrying the 17q-chromosome aberration marker occurred 18 months after cessation of induction treatment in one patient who had prior genotoxic cytostatics and radiotherapy.

Like-named read-outs stand apart in the source and are kept apart here.

Take `Cc1ncc(COP(=O)(O)O)c(C=O)c1O` [PLP, pyridoxal 5′-phosphate]: the dissociation constant (Kd) in data set [1] (read-out: Kd of SHMT binding to cofactor, lower end of reported range) was at least 0.25 µM; in data set [1] (read-out: Kd of SHMT binding to cofactor, upper end of reported range) it was at most 27 µM.
Turning to `Cc1ncc(CO)c(CN)c1O` [PM, pyridoxamine], in data set [2], the “AUC 12 h of B6 vitamer: PLP” value is on record as 14,988 nmol/L cells · 12 h and the “AUC 12 h of B6 vitamer: PMP” value is reported as 19,356 nmol/L cells · 12 h.
`Cc1ncc(COP(=O)(O)O)c(CN)c1O` [PMP, pyridoxamine 5′-phosphate]: the Michaelis-Menten constant (Km) in data set [3] was 1 µM.
On to `Cc1ncc(CO)c(CO)c1O` [PN, pyridoxine], for which, in data set [2], the “AUC 12 h of B6 vitamer: PLP” value is given as 2,231 nmol/L cells · 12 h and the “AUC 12 h of B6 vitamer: PMP” value is 11,597 nmol/L cells · 12 h. In data set [4] (extremely high doses for long periods of time), the toxicity in man entry was “sensory peripheral neuropathy”. For the same molecule, in data set [4] (high doses used for treatment of various conditions), the safety in man result was “safe”. For the same molecule, in data set [5], the “sensory peripheral neuropathy with high cumulative doses of pyridoxine, versus that expected with paclitaxel in TCbF” value is given as “not accompanied with greater incidence, or higher grades, of sensory peripheral neuropathy”.
